Results taken from patent US11365188B2, “JAK inhibitors” (priority 2018, dated 2022).
Where a name gives a salt, the structure may show the parent alone.

Experiments:
Type in all cases: biochemical
[1] = target: JAK2 (Homo sapiens, UniProt O60674); assay: JAK2 Assay (Caliper EZ Reader, fluoresceinated peptide); details: ATP 11.4 μM; JAK2 0.25 nM; 15 minutes at room temperature; read-out: JAK2 inhibition
[2] = target: TYK2 (Homo sapiens, UniProt P29597); assay: TYK2 Assay (Caliper EZ Reader, fluoresceinated peptide); details: ATP 35.4 μM; TYK2 10 nM; 10 minutes at room temperature; read-out: TYK2 inhibition
TYK2, sequence (P29597 whole entry, species assumed): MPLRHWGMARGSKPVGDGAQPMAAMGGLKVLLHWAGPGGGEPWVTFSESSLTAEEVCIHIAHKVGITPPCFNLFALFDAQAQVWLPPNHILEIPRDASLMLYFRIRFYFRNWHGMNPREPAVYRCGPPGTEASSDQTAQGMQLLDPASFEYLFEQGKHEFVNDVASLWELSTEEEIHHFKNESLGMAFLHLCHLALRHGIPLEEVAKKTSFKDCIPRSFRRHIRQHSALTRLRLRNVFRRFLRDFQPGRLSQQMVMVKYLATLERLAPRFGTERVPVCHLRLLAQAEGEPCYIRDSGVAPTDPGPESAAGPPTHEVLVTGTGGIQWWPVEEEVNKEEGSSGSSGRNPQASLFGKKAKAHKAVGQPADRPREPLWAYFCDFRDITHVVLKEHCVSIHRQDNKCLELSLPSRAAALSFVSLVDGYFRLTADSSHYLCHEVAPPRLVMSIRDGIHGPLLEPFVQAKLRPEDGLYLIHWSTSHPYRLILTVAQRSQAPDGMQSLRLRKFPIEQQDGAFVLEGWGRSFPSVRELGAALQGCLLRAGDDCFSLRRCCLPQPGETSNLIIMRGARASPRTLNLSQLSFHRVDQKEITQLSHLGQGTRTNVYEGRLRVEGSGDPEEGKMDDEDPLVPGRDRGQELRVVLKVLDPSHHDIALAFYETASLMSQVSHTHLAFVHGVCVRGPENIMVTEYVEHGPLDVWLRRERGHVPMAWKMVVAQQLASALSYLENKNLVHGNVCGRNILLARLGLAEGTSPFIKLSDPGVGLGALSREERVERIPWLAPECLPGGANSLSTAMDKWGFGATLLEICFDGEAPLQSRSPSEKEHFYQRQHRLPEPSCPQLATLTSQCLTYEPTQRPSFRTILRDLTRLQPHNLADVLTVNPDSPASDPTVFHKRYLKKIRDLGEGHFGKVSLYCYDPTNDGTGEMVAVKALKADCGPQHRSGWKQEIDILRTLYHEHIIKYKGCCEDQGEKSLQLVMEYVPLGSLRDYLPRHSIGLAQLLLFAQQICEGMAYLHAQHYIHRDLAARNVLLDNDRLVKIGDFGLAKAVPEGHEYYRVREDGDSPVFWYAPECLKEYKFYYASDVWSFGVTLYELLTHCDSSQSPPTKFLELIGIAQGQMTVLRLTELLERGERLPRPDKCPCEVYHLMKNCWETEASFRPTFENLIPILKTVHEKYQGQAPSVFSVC
Protocol: 384-well plates in the left foot butoxy measured progress. The final assay volume was 25 μL, 250 nL 100× compounds, 10 μL enzyme mix and 15 μL substrate mix (fluoresceinated peptide and ATP) in assay buffer (50 mM HEPES (pH 7.5), 10 mM MgCl2, 0.01% TritonX-100, 0.01% Brij35, 0.5 mM EGTA and 2 mM DTT) prepared as test compound. B mixing the TYK2 with substrates and test compounds to start the reaction. The reaction mixture was incubated for 10 minutes at room temperature, then added 30 μL stop buffer for each sample to terminate the reaction with 50 mM EDTA. After termination of the kinase reaction, the proportion of phosphorylated product was determined as a fraction of total peptide substrate using Caliper EZ Reader 1. Inhibition data were calculated by comparison with 100% of the reaction mixture without enzyme inhibition and vehicle-only reaction mixture billion % inhibition compared. The final concentration of reagents in the assays is: ATP, 35.4 μM; TYK2 fluorescent peptide (5-FAM-KKKKEEIYFFF-CONH2), 3 μM; TYK2, 10 nM; and DMSO, 1% Dose response curve were generated to determine the concentration required for IC50 of TYK2 activity.

[3] = target: JAK1 (Homo sapiens, UniProt P23458); assay: JAK Kinase Assay (JAK1, Caliper EZ Reader, fluoresceinated peptide); details: ATP 76.5 μM; JAK1 10 nM; 120 minutes at room temperature; read-out: JAK1 inhibition
JAK1, sequence (P23458 whole entry, species assumed): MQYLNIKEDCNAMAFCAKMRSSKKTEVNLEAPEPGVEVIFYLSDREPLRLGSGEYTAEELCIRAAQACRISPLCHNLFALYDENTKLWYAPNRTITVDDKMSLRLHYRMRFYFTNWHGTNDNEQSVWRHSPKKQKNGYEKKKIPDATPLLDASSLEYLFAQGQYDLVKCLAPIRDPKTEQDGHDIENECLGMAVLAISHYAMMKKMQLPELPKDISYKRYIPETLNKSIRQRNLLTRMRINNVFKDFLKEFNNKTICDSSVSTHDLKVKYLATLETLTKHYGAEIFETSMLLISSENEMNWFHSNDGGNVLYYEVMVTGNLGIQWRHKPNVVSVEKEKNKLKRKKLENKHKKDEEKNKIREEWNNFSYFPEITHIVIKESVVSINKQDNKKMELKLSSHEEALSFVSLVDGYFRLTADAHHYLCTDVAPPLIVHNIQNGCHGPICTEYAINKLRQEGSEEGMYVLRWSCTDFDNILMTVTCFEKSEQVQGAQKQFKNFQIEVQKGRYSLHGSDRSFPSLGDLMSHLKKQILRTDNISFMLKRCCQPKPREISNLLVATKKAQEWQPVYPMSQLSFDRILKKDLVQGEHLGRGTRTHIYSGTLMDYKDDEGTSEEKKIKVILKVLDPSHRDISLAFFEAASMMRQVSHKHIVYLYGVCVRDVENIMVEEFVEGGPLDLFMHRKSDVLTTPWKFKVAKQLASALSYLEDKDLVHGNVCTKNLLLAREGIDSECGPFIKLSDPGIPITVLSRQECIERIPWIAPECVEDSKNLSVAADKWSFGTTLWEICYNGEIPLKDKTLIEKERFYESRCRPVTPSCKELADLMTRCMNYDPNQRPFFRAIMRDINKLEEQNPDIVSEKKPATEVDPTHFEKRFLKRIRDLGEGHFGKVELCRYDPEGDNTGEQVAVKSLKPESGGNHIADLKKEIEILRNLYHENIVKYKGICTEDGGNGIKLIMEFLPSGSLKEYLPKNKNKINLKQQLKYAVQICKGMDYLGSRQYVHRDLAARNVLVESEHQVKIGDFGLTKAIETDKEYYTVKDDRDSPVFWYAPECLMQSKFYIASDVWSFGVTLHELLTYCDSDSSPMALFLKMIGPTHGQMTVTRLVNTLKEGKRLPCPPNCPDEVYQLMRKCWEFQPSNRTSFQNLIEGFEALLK

[4] = target: T1, JAK3 (Homo sapiens, UniProt P52333); assay: JAK3 Assay (Caliper EZ Reader, fluoresceinated peptide); details: ATP 3.5 μM; JAK3 0.5 nM; 30 minutes at room temperature; read-out: JAK3 inhibition
T1 sequence (P52333 1-1124): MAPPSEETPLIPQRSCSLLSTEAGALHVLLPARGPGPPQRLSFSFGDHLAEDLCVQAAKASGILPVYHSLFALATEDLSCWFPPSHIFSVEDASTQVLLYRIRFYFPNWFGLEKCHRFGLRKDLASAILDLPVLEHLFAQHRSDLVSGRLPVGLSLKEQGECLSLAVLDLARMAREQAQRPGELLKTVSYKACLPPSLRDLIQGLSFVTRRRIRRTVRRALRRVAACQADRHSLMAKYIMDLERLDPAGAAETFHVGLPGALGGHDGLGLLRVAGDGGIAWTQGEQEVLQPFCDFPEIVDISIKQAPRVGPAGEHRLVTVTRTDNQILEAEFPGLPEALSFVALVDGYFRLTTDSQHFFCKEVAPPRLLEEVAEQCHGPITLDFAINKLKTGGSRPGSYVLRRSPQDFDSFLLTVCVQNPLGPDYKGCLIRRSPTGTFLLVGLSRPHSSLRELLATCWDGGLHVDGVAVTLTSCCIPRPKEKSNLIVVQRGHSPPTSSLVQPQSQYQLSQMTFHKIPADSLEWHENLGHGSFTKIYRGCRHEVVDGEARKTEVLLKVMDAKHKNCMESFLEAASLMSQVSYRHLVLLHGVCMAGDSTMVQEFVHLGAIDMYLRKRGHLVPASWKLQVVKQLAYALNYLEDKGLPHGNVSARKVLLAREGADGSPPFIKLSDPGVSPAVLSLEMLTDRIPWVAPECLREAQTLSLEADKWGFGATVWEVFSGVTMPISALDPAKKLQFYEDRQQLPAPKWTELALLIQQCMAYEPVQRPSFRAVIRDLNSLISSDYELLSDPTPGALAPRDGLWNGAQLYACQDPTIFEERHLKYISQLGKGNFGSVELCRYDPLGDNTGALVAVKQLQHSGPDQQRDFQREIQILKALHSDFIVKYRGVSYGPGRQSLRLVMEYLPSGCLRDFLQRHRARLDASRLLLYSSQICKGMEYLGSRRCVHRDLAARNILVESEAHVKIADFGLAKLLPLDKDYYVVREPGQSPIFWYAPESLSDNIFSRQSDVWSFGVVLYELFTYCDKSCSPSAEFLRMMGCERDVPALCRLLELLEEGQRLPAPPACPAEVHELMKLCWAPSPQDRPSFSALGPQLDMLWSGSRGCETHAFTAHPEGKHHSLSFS

JAK2, sequence (O60674 whole entry, species assumed): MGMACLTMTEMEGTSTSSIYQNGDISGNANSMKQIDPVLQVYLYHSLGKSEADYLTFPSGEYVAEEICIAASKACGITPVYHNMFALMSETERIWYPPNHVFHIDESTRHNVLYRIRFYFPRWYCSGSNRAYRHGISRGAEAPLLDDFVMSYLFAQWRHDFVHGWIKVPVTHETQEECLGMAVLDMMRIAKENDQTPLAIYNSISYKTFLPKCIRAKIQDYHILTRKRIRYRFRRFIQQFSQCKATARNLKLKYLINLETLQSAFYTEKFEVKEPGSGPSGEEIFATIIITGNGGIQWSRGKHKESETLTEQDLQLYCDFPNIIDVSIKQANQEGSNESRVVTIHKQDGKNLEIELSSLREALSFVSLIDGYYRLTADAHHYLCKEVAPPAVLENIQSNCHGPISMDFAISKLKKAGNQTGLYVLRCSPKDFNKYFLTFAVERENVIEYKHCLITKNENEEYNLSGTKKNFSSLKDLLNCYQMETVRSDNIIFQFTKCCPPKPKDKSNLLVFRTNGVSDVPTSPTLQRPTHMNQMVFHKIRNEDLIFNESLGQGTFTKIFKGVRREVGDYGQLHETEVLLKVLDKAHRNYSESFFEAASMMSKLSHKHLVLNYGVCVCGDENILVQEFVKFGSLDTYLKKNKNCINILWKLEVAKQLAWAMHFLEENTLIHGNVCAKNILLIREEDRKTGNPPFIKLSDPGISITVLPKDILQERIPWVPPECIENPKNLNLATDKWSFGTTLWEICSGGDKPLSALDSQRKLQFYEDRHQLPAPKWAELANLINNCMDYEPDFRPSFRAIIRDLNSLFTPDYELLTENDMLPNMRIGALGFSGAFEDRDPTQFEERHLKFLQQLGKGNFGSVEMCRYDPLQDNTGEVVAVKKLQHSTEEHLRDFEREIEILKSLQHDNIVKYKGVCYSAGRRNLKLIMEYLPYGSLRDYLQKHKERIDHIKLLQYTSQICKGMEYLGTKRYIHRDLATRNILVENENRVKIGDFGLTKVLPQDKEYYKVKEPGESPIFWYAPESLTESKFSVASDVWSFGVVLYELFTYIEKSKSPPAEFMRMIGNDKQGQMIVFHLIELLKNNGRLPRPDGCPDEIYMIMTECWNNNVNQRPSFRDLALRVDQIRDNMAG

IC50 [1] [µM] | IC50 [2] [µM] | IC50 [3] [µM] | IC50 [4] [µM] | SMILES
1 to 10 | ≥ 10 | 0.01 to 0.1 | ≥ 10 | CN(c1ncnc2[nH]ccc12)C1CC2(C1)CN(C(=O)c1ccc(C#N)c(F)c1)C2 [Compound 1, 2-fluoro-4-(6-(methyl(7H-pyrrolo[2,3-d]pyrimidin-4-yl)amino)-2-azaspiro[3.3]heptane-2-carbonyl)benzonitrile]
0.1 to 1 | ≥ 10 | 0.01 to 0.1 | ≥ 10 | CN(c1ncnc2[nH]ccc12)C1CC2(C1)CN(C(=O)c1ccc(C#N)cc1F)C2 [Compound 14, 3-fluoro-4-(6-(methyl(7H-pyrrolo[2,3-d]pyrimidin-4-yl)amino)-2-azaspiro[3.3]heptane-2-carbonyl)benzonitrile]
1 to 10 | ≥ 10 | 0.01 to 0.1 | ≥ 10 | COc1ccc(C(=O)N2CC3(CC(N(C)c4ncnc5[nH]ccc45)C3)C2)cc1 [Compound 24, (4-methoxyphenyl)(6-(methyl(7H-pyrrolo[2,3-d]pyrimidin-4-yl)amino)-2-azaspiro[3.3]heptan-2-yl)methanone]
1 to 10 | ≥ 10 | 0.01 to 0.1 | ≥ 10 | CN(c1ncnc2[nH]ccc12)C1CC2(C1)CN(C(=O)c1ccc(Cl)cc1)C2 [Compound 25, (4-chlorophenyl)(6-(methyl(7H-pyrrolo[2,3-d]pyrimidin-4-yl)amino)-2-azaspiro[3.3]heptan-2-yl)methanone]
0.1 to 1 | 1 to 10 | ≤ 0.01 | ≥ 10 | C#Cc1ccc(C(=O)N2CC3(CC(N(C)c4ncnc5[nH]ccc45)C3)C2)cc1 [Compound 26, (4-ethynylphenyl)(6-(methyl(7H-pyrrolo[2,3-d]pyrimidin-4-yl)amino)-2-azaspiro[3.3]heptan-2-yl)methanone]
1 to 10 | ≥ 10 | 0.01 to 0.1 | ≥ 10 | CN(c1ncnc2[nH]ccc12)C1CC2(C1)CN(C(=O)c1ccc(F)cc1)C2 [Compound 27, (4-fluorophenyl)(6-(methyl(7H-pyrrolo[2,3-d]pyrimidin-4-yl)amino)-2-azaspiro[3.3]heptan-2-yl)methanone]
0.1 to 1 | ≥ 10 | 0.01 to 0.1 | ≥ 10 | Cc1ccsc1C(=O)N1CC2(CC(N(C)c3ncnc4[nH]ccc34)C2)C1 [Compound 28, (6-(methyl(7H-pyrrolo[2,3-d]pyrimidin-4-yl)amino)-2-azaspiro[3.3]heptan-2-yl)(3-methylthiophen-2-yl)methanone]
0.1 to 1 | 1 to 10 | 0.01 to 0.1 | ≥ 10 | CN(c1ncnc2[nH]ccc12)C1CC2(C1)CN(C(=O)c1cc3ccccc3[nH]1)C2 [Compound 30, (1H-indol-2-yl)(6-(methyl(7H-pyrrolo[2,3-d]pyrimidin-4-yl)amino)-2-azaspiro[3.3]heptan-2-yl)methanone]
1 to 10 | ≥ 10 | 0.1 to 1 | ≥ 10 | CN(c1ncnc2[nH]ccc12)C1CC2(C1)CN(C(=O)c1ccc(C(F)(F)F)cc1)C2 [Compound 31, (6-(methyl(7H-pyrrolo[2,3-d]pyrimidin-4-yl)amino)-2-azaspiro[3.3]heptan-2-yl)(4-(trifluoromethyl)phenyl)methanone]
1 to 10 | ≥ 10 | 0.01 to 0.1 | ≥ 10 | CN(c1ncnc2[nH]ccc12)C1CC2(C1)CN(C(=O)c1ccc(Cl)cn1)C2 [Compound 32, (5-chloropyridin-2-yl)(6-(methyl(7H-pyrrolo[2,3-d]pyrimidin-4-yl)amino)-2-azaspiro[3.3]heptan-2-yl)methanone]
0.1 to 1 |  | 0.1 to 1 | 1 to 10 | CCCS(=O)(=O)N1CCC2(CCC(N(C)c3ncnc4c3CCN4)CC2)CC1 [Compound 96, (6,7-Dihydro-5H-pyrrolo[2,3-d]pyrimidin-4-yl)-methyl-[3-(propane-1-sulfonyl)-3-aza-spiro[5.5]undec-9-yl]-amine]
0.1 to 1 |  | 0.1 to 1 | 1 to 10 | CNCC(=O)N1CCC2(CCC(N(C)c3ncnc4[nH]ccc34)CC2)CC1 [Compound 97, 2-Methylamino-1-{9-[methyl-(7H-pyrrolo[2,3-d]pyrimidin-4-yl)-amino]-3-aza-spiro[5.5]undec-3-yl}-ethanone HCl salt]
0.1 to 1 |  | 0.01 to 0.1 | 1 to 10 | CC(C)OC(=O)N1CCC2(CCC(N(C)c3ncnc4c3CCN4)CC2)CC1 [Compound 98, 9-[(6,7-Dihydro-5H-pyrrolo[2,3-d]pyrimidin-4-yl)-methyl-amino]-3-aza-spiro[5.5]undecane-3-carboxylic acid isopropyl ester]
0.1 to 1 |  | 0.01 to 0.1 | 1 to 10 | CN(c1ncnc2[nH]ccc12)C1CCC2(CC1)CCN(C(=O)C1CC1)CC2 [Compound 99, Cyclopropyl-{9-[methyl-(7H-pyrrolo[2,3-d]pyrimidin-4-yl)-amino]-3-aza-spiro[5.5]undec-3-yl}-methanone]
0.1 to 1 |  | 0.1 to 1 | 1 to 10 | CCCC(=O)N1CCC2(CCC(N(C)c3ncnc4[nH]ccc34)CC2)CC1 [Compound 100, 1-{9-[Methyl-(7H-pyrrolo[2,3-d]pyrimidin-4-yl)-amino]-3-aza-spiro[5.5]undec-3-yl}-butan-1-one]
0.1 to 1 |  | 0.1 to 1 | 1 to 10 | CN(c1ncnc2[nH]ccc12)C1CCC2(CC1)CCN(C(=O)c1cccc(OC(F)(F)F)c1)CC2 [Compound 101, {9-[Methyl-(7H-pyrrolo[2,3-d]pyrimidin-4-yl)-amino]-3-aza-spiro[5.5]undec-3-yl}-(3-trifluoromethoxy-phenyl)-methanone]
0.1 to 1 |  | 0.1 to 1 | 0.1 to 1 | CN(c1ncnc2[nH]ccc12)C1CCC2(CC1)CCN(C(=O)c1cccc(C#N)c1)CC2 [Compound 102, 3-{9-[Methyl-(7H-pyrrolo[2,3-d]pyrimidin-4-yl)-amino]-3-aza-spiro[5.5]undecane-3-carbonyl}-benzonitrile]
0.1 to 1 |  | 0.01 to 0.1 | 0.1 to 1 | CN(c1ncnc2[nH]ccc12)C1CCC2(CC1)CCN(S(=O)(=O)CC(F)(F)F)CC2 [Compound 103, Methyl-(7H-pyrrolo[2,3-d]pyrimidin-4-yl)-[3-(2,2,2-trifluoro-ethanesulfonyl)-3-aza-spiro[5.5]undec-9-yl]-amine]
1 to 10 |  | 1 to 10 | 1 to 10 | CN(c1ncnc2[nH]ccc12)C1CCC2(CC1)CCN(C(=O)CC#N)CC2 [Compound 104, 3-{9-[Methyl-(7H-pyrrolo[2,3-d]pyrimidin-4-yl)-amino]-3-aza-spiro[5.5]undec-3-yl}-3-oxo-propionitrile]
0.1 to 1 |  | 0.1 to 1 | 1 to 10 | CN(c1ncnc2[nH]ccc12)C1CCC2(CC1)CCN(C(=O)c1cc3ccccc3s1)CC2 [Compound 105, Benzo[b]thiophen-2-yl-{9-[methyl-(7H-pyrrolo[2,3-d]pyrimidin-4-yl)-amino]-3-aza-spiro[5.5]undec-3-yl}-methanone]
